Several values for one entry are separate records, joined by “and”; a condition that tells them apart may be missing. Equal values may be shown once.
Target: Recombinant human IDO (Homo sapiens, UniProt P14902)
Experiment: Bridge-IT tryptophan fluorescence assay of human IDO-1 inhibition
Assay type: biochemical
Details: recombinant human IDO 7.5 nM, L-tryptophan
How it was run: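 One variant ran L-Trp at 100 μM for 90 min at 37 °C. The other pre-incubated compound for 30 min at 25 °C, then ran 50 μM L-Trp for 60 min at 25 °C.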

Chain of Recombinant human IDO (P14902 whole entry): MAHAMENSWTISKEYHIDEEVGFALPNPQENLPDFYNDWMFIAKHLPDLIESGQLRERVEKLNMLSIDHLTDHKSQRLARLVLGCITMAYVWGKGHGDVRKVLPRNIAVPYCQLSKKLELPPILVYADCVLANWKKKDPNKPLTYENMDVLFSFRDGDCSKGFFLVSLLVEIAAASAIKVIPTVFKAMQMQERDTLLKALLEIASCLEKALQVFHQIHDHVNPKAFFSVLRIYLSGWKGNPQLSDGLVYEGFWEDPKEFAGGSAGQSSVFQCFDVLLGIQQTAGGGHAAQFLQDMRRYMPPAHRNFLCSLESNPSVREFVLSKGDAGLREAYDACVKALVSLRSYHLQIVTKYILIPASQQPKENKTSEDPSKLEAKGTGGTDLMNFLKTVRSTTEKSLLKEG

SMILES	IC50
FC(CC1c2ncccc2-c2cncn21)C1CCCCC1 (single isomer, unassigned) [Compound 97a, 7-[2-cyclohexyl-2-fluoroethyl]-4,6,9-triazatricyclo[6.4.0.0^[2,6]]dodeca-1(8),2,4,9,11-pentaene]	> 1 µM
OC(CC1c2cnccc2-c2cncn21)C1CCCCC1 (centres unmarked) [Compound 9a, 1-Cyclohexyl-2-[4,6,10-triazatricyclo[6.4.0.0^[2,6]]dodeca-1(8),2,4,9,11-pentaen-7-yl]ethan-1-ol]	> 1 µM
CN(C)C(=O)C1CCC(F)(CCC2c3c(Cl)cccc3-c3cncn32)CC1 (single isomer, unassigned) [Compound 114d, 4-[2-[6-chloro-5H-imidazo[4,3-a]isoindol-5-yl]ethyl]-4-fluoro-N,N-dimethylcyclohexane-1-carboxamide]	> 1 µM
COc1ccc2c(n1)C(CCC1(F)CCCCC1)n1cncc1-2 (single isomer, unassigned) [Compound 32b, 7-[2-(1-fluorocyclohexyl)ethyl]-10-methoxy-4,6,9-triazatricyclo[6.4.0.0^[2,6]]dodeca-1(8),2,4,9,11-pentaene]	0.1 to 1 µM
OC(CC1c2ncncc2-c2cncn21)C1CCCCC1 (single isomer, unassigned) [Compound 67b, 1-cyclohexyl-2-[4,6,9,11-tetraazatricyclo[6.4.0.0^[2,6]]dodeca-1(8),2,4,9,11-pentaen-7-yl]ethan-1-ol]	> 1 µM
Oc1cccc2c1-c1cncn1C2CCC1(F)CCCCC1 (single isomer, unassigned) [Compound 43a, 5-(2-(1-fluorocyclohexyl)ethyl)-5H-imidazo[5,1-a]isoindol-9-ol]	> 1 µM
COc1ccc2c(n1)C(CC(O)C1CCC(C)(C)CC1)n1cncc1-2 (single isomer, unassigned) [Compound 40b, 1-(4,4-dimethylcyclohexyl)-2-[10-methoxy-4,6,9-triazatricyclo[6.4.0.0^[2,6]]dodeca-1(8),2,4,9,11-pentaen-7-yl]ethan-1-ol]	0.1 to 1 µM
COc1ccc2c(n1)C(CC(N)C1CCC(F)(F)CC1)n1cncc1-2 (single isomer, unassigned) [Compound 120a, 1-(4,4-difluorocyclohexyl)-2-[10-methoxy-4,6,9-triazatricyclo[6.4.0.0^[2,6]]dodeca-1(8),2,4,9,11-pentaen-7-yl]ethan-1-amine]	> 1 µM
OC(CC1c2ncccc2-c2cncn21)C1CCC(C2(O)CC2)CC1 (single isomer, unassigned) [Compound 117d, 1-[4-[1-hydroxy-2-[4,6,9-triazatricyclo[6.4.0.0^[2,6]]dodeca-1(8),2,4,9,11-pentaen-7-yl]ethyl]cyclohexyl]cyclopropan-1-ol]	> 1 µM
OCC1CCC(F)(CCC2c3c(F)cccc3-c3cncn32)CC1 (single isomer, unassigned) [Compound 84a, [4-fluoro-4-[2-[6-fluoro-5H-imidazo[4,3-a]isoindol-5-yl]ethyl]cyclohexyl]methanol]	> 1 µM
OC(CC1c2ncncc2-c2cncn21)C1CCCCC1 (centres unmarked) [Compound 67a, 1-cyclohexyl-2-[4,6,9,11-tetraazatricyclo[6.4.0.0^[2,6]]dodeca-1(8),2,4,9,11-pentaen-7-yl]ethan-1-ol]	> 1 µM and 0.1 to 1 µM
OC(CC1c2ncccc2-c2cncn21)c1ccccc1 (centres unmarked) [Compound 12b, 1-Phenyl-2-[4,6,9-triazatricyclo[6.4.0.0^[2,6]]dodeca-1(8),2,4,9,11-pentaen-7-yl]ethan-1-ol]	> 1 µM
Fc1ccnc2c1-c1cncn1C2CCC1(F)CCCCC1 (single isomer, unassigned) [Compound 102a, 12-fluoro-7-[2-(1-fluorocyclohexyl)ethyl]-4,6,9-triazatricyclo[6.4.0.0^[2,6]]dodeca-1(8),2,4,9,11-pentaene]	> 1 µM
OC(CC1c2nc(C3CC3)ccc2-c2cncn21)C1CCC(F)(F)CC1 (single isomer, unassigned) [Compound 57c, 2-[10-cyclopropyl-4,6,9-triazatricyclo[6.4.0.0^[2,6]]dodeca-1(8),2,4,9,11-pentaen-7-yl]-1-(4,4-difluorocyclohexyl)ethan-1-ol]	0.1 to 1 µM
OC(CC1c2ncncc2-c2cncn21)C1CCCCC1 (mixture of isomers) [Compound 67d, 1-cyclohexyl-2-[4,6,9,11-tetraazatricyclo[6.4.0.0^[2,6]]dodeca-1(8),2,4,9,11-pentaen-7-yl]ethan-1-ol]	> 1 µM
OC1CCC(F)(CCC2c3cccc(F)c3-c3cncn32)CC1 (single isomer, unassigned) [Compound 35b, 4-fluoro-4-(2-(9-fluoro-5H-imidazo[5,1-a]isoindol-5-yl)ethyl)cyclohexanol]	0.1 to 1 µM
CC(C)(O)C1CCC(F)(CCC2c3c(F)cccc3-c3cncn32)CC1 (centres unmarked) [Compound 86a, 2-[4-fluoro-4-(2-[6-fluoro-5H-imidazo[4,3-a]isoindol-5-yl]ethyl)cyclohexyl]propan-2-ol]	0.1 to 1 µM

Other lines, results leading:

IC50	SMILES
0.1 to 1 µM	OC1CCC(F)(CCC2c3c(F)ccc(F)c3-c3cncn32)CC1 (single isomer, unassigned) [Compound 38b, 4-(2-(6,9-difluoro-5H-imidazo[5,1-a]isoindol-5-yl)ethyl)-4-fluorocyclohexanol]
0.1 to 1 µM	OC(CC1c2ncccc2-c2cncn21)C1(F)CCCCC1 (centres unmarked) [Compound 109b, 1-(1-fluorocyclohexyl)-2-[4,6,9-triazatricyclo[6.4.0.0^[2,6]]dodeca-1(8),2,4,9,11-pentaen-7-yl]ethan-1-ol]
0.1 to 1 µM	OC(CC1CCCCC1)CC1c2ncccc2-c2cncn21 (single isomer, unassigned) [Compound 62a, 1-cyclohexyl-3-[4,6,9-triazatricyclo[6.4.0.0^[2,6]]dodeca-1(8),2,4,9,11-pentaen-7-yl]propan-2-ol]
0.1 to 1 µM	OC(CC1c2c(Cl)cccc2-c2cncn21)C1(F)CCCCC1 (single isomer, unassigned) [Compound 83b, 2-[6-chloro-5H-imidazo[4,3-a]isoindol-5-yl]-1-(1-fluorocyclohexyl)ethan-1-ol]
< 0.1 µM	OC1(C2CCC(F)(CCC3c4c(Cl)cccc4-c4cncn43)CC2)CC1 (mixture of isomers) [Compound 106a, 1-[4-(2-[6-chloro-5H-imidazo[4,3-a]isoindol-5-yl]ethyl)-4-fluorocyclohexyl]cyclopropan-1-ol]
0.1 to 1 µM	NC(=O)C1CCC(F)(CCC2c3c(Cl)cccc3-c3cncn32)CC1 (single isomer, unassigned) [Compound 99b, 4-[2-[6-chloro-5H-imidazo[4,3-a]isoindol-5-yl]ethyl]-4-fluorocyclohexane-1-carboxamide]
< 0.1 µM	NC(=O)C1CCC(F)(CCC2c3c(F)cccc3-c3cncn32)CC1 (single isomer, unassigned) [Compound 81c, 4-fluoro-4-[2-[6-fluoro-5H-imidazo[4,3-a]isoindol-5-yl]ethyl]cyclohexane-1-carboxamide]
< 0.1 µM	COc1ccc2c(n1)C(CC(O)C1CCCCC1)n1cncc1-2 (single isomer, unassigned) [Compound 39a, 1-Cyclohexyl-2-[10-methoxy-4,6,9-triazatricyclo[6.4.0.0^[2,6]]dodeca-1(8),2,4,9,11-pentaen-7-yl]ethan-1-ol]
< 0.1 µM	NC(=O)C1CCC(F)(CCC2c3ccccc3-c3cncn32)CC1 (single isomer, unassigned) [Compound 79c, 4-fluoro-4-[2-[5H-imidazo[4,3-a]isoindol-5-yl]ethyl]cyclohexane-1-carboxamide]
